The values below come from patent US9328106B2, “Cyclic ether pyrazol-4-yl-heterocyclyl-carboxamide compounds and methods of use” (Genentech, Inc., priority 2012, dated 2016).

PIM1, sequence (P11309 whole entry): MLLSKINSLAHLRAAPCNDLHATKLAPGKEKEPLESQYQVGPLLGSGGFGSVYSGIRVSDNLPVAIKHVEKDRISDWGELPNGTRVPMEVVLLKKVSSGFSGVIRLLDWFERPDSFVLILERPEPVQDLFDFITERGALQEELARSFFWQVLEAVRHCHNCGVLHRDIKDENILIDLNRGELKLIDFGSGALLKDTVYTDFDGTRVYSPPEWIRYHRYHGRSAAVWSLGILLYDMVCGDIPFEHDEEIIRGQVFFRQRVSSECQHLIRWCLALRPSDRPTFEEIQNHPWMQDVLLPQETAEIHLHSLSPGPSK

The first assay concerns the target PIM1 (Homo sapiens (Human), UniProt P11309). The experiment in a line: biochemical.
Settings: not given
Type of assay: biochemical.
`[2H]C([2H])([2H])O[C@H]1CO[C@@H](c2c(NC(=O)c3nc(-c4c(F)cccc4F)sc3N)cnn2C)CC[C@@H]1N` [Example 180, 5-Amino-N-[5-[(2R,5S,6R)-5-amino-6-(trideuteriomethoxy)oxepan-2-yl]-1-methyl-pyrazol-4-yl]-2-(2,6-difluorophenyl)thiazole-4-carboxamide] displayed an inhibition constant Ki of 0.017 nM.

The same assay, now with this note: 20 pM PIM1, 1 μM FAM-peptide, 10 μM ATP, 90 minutes at room temperature; read-out: PIM1 LC3K (KI).
Take `Cn1ncc(NC(=O)c2nc(-c3c(F)cccc3F)sc2N)c1[C@H]1OC[C@](C)(CN)CO1` [Example 175, 5-Amino-N-[5-[5-(aminomethyl)-5-methyl-1,3-dioxan-2-yl]-1-methyl-pyrazol-4-yl]-2-(2,6-difluorophenyl)thiazole-4-carboxamide]: the inhibition constant (Ki) was determined as 0.036 nM.
Same read-out and setting: with `Cn1ncc(NC(=O)c2nc(-c3c(F)cccc3F)sc2N)c1[C@H]1CC[C@H](N)[C@@H](F)CO1` [Example 176, 5-Amino-N-[5-[(2R,5S,6R)-5-amino-6-fluoro-oxepan-2-yl]-1-methyl-pyrazol-4-yl]-2-(2,6-difluorophenyl)thiazole-4-carboxamide] the figure was 0.595 nM.
Regarding `Cn1ncc(NC(=O)c2nc(-c3c(F)cccc3F)sc2N)c1[C@H]1OC[C@@](C)(CN)CO1` [Example 178, 5-Amino-N-[5-[5-(aminomethyl)-5-methyl-1,3-dioxan-2-yl]-1-methyl-pyrazol-4-yl]-2-(2,6-difluorophenyl)thiazole-4-carboxamide], the inhibition constant (Ki) is 0.155 nM.
For the compound `Cn1ncc(NC(=O)c2nc(-c3cccc(F)c3F)sc2N)c1[C@@H]1CC[C@@H](N)[C@@H](F)CO1` [Example 181, 5-Amino-N-[5-[(2S,5R,6R)-5-amino-6-fluoro-oxepan-2-yl]-1-methyl-pyrazol-4-yl]-2-(2,3-difluorophenyl)thiazole-4-carboxamide], the Ki is 0.004 nM.
On the same count and under the same terms, as for `Cn1ncc(NC(=O)c2nc(-c3ccncc3F)sc2N)c1[C@@H]1CC[C@@H](N)[C@@H](F)CO1` [Example 182, 5-Amino-N-[5-[(2S,5R,6R)-5-amino-6-fluoro-oxepan-2-yl]-1-methyl-pyrazol-4-yl]-2-(3-fluoro-4-pyridyl)thiazole-4-carboxamide], the figure is 0.051 nM; as for `CO[C@H]1CO[C@H](c2c(NC(=O)c3nc(-c4ccccc4F)sc3N)cnn2C)CC[C@H]1N` [Example 183, 5-Amino-N-[5-[(2S,5R,6R)-5-amino-6-methoxy-oxepan-2-yl]-1-methyl-pyrazol-4-yl]-2-(2-fluorophenyl)thiazole-4-carboxamide], 0.0143 nM.
Take `C[C@H]1O[C@@H](c2c(NC(=O)c3nc(-c4c(F)cccc4F)sc3N)cnn2C)CC(F)(F)[C@@]1(C)N` [Example 184, 5-Amino-N-(5-((2R,5S,6R)-5-amino-4,4-difluoro-5,6-dimethyltetrahydro-2H-pyran-2-yl)-1-methyl-1H-pyrazol-4-yl)-2-(2,6-difluorophenyl)thiazole-4-carboxamide]: the Ki worked out at 0.484 nM.
For the compound `C[C@@H]1O[C@H](c2c(NC(=O)c3nc(-c4c(F)cccc4F)sc3N)cnn2C)CC(F)(F)[C@]1(C)N` [Example 185, 5-Amino-N-(5-((2S,5R,6S)-5-amino-4,4-difluoro-5,6-dimethyltetrahydro-2H-pyran-2-yl)-1-methyl-1H-pyrazol-4-yl)-2-(2,6-difluorophenyl)thiazole-4-carboxamide], the inhibition constant Ki came to 4.35 nM.
As to `Cn1ncc(NC(=O)c2nc(-c3ccccc3F)sc2N)c1[C@@H]1CC[C@@H](N)[C@@H](F)CO1` [Example 186, 5-Amino-N-(5-((2S,5R,6R)-5-amino-6-fluorooxepan-2-yl)-1-methyl-1H-pyrazol-4-yl)-2-(2-fluorophenyl)thiazole-4-carboxamide], the Ki was 0.007 nM.
For the compound `COc1cc(F)c(-c2nc(C(=O)Nc3cnn(C)c3[C@@H]3CC[C@@H](N)[C@@H](F)CO3)ccc2F)c(F)c1` [Example 187, N-(5-((2S,5R,6R)-5-Amino-6-fluorooxepan-2-yl)-1-methyl-1H-pyrazol-4-yl)-6-(2,6-difluoro-4-methoxyphenyl)-5-fluoropicolinamide], the Ki turned out to be 0.027 nM.
On to `Cn1ncc(NC(=O)c2ccc(F)c(-c3c(F)cc(OC4CCOCC4)cc3F)n2)c1[C@@H]1CC[C@@H](N)[C@@H](F)CO1` [Example 188, N-(5-((2S,5R,6R)-5-Amino-6-fluorooxepan-2-yl)-1-methyl-1H-pyrazol-4-yl)-6-(2,6-difluoro-4-((tetrahydro-2H-pyran-4-yl)oxy)phenyl)-5-fluoropicolinamide], for which the Ki was found to be 0.03 nM.
For the compound `COCCOc1cc(F)c(-c2nc(C(=O)Nc3cnn(C)c3[C@@H]3CC[C@@H](N)[C@@H](F)CO3)ccc2F)c(F)c1` [Example 189, N-(5-((2S,5R,6R)-5-Amino-6-fluorooxepan-2-yl)-1-methyl-1H-pyrazol-4-yl)-6-(2,6-difluoro-4-(2-methoxyethoxy)phenyl)-5-fluoropicolinamide], the inhibition constant (Ki) was 0.025 nM.
For `Cn1ncc(NC(=O)c2ccc(F)c(-c3c(F)cc(OCCO)cc3F)n2)c1[C@@H]1CC[C@@H](N)[C@@H](F)CO1` [Example 190, N-(5-((2S,5R,6R)-5-Amino-6-fluorooxepan-2-yl)-1-methyl-1H-pyrazol-4-yl)-6-(2,6-difluoro-4-(2-hydroxyethoxy)phenyl)-5-fluoropicolinamide], the Ki amounted to 0.014 nM.
For `COCCOc1cc(F)c(-c2nc(C(=O)Nc3cnn(C)c3[C@@H]3CC[C@@H](N)[C@H](O)CO3)ccc2F)c(F)c1` [Example 191, N-(5-((2S,5R,6S)-5-Amino-6-hydroxyoxepan-2-yl)-1-methyl-1H-pyrazol-4-yl)-6-(2,6-difluoro-4-(2-methoxyethoxy)phenyl)-5-fluoropicolinamide], the Ki worked out at 0.056 nM.
For `COCCOc1cc(F)c(-c2nc(C(=O)Nc3cnn(C)c3[C@@H]3CC[C@@H](N)[C@H](F)CO3)ccc2F)c(F)c1` [Example 192, N-(5-((2S,5R,6S)-5-amino-6-fluorooxepan-2-yl)-1-methyl-1H-pyrazol-4-yl)-6-(2,6-difluoro-4-(2-methoxyethoxy)phenyl)-5-fluoropicolinamide], the Ki stood at 0.023 nM.
For the compound `Cn1ncc(NC(=O)c2ccc(F)c(-c3c(F)cc(C4(O)COC4)cc3F)n2)c1[C@@H]1CC[C@@H](N)[C@H](F)CO1` [Example 193, N-(5-((2S,5R,6S)-5-amino-6-fluorooxepan-2-yl)-1-methyl-1H-pyrazol-4-yl)-6-(2,6-difluoro-4-(3-hydroxyoxetan-3-yl)phenyl)-5-fluoropicolinamide], the inhibitory constant (Ki) worked out at 0.034 nM.
`Cn1ncc(NC(=O)c2ccc(F)c(-c3c(F)cc(C4(F)COC4)cc3F)n2)c1[C@@H]1CC[C@@H](N)[C@H](F)CO1` [Example 194, N-(5-((2S,5R,6S)-5-amino-6-fluorooxepan-2-yl)-1-methyl-1H-pyrazol-4-yl)-6-(2,6-difluoro-4-(3-fluorooxetan-3-yl)phenyl)-5-fluoropicolinamide]: the Ki stood at 0.022 nM.
On to `Cn1ncc(NC(=O)c2ccc(F)c(-c3c(F)cccc3F)n2)c1[C@@H]1CC[C@@H](N)[C@H](F)CO1` [Example 195, N-(5-((2S,5R,6S)-5-amino-6-fluorooxepan-2-yl)-1-methyl-1H-pyrazol-4-yl)-6-(2,6-difluorophenyl)-5-fluoropicolinamide], for which the inhibition constant (Ki) is 0.025 nM.
Consider `Cn1ncc(NC(=O)c2ccc(F)c(-c3c(F)cc(C4(O)CCOCC4)cc3F)n2)c1[C@@H]1CC[C@@H](N)[C@H](F)CO1` [Example 196, N-(5-((2S,5R,6S)-5-amino-6-fluorooxepan-2-yl)-1-methyl-1H-pyrazol-4-yl)-6-(2,6-difluoro-4-(4-hydroxytetrahydro-2H-pyran-4-yl)phenyl)-5-fluoropicolinamide], for which the Ki came out at 0.006 nM.

What is called Ki is a dissociation constant, usually derived from enzyme kinetics or from competition with a known ligand.
